Results as given in patent US20240199555A1, “APPLICATIONS OF BIASED LIGANDS OF THE SEROTONIN 5-HT7 RECEPTOR FOR THE TREATMENT OF PAIN, MULTIPLE SCLEROSIS AND THE CONTROL OF THERMOREGULATION” (Centre National de la Recherche Scientifique, priority 2021, published 2024).

Tests used:
[1] = Pharmacokinetic study in plasma and brain; type: in vivo, C57BL/6 mice; conditions: 5 mg/kg, subcutaneous
Description: FIG. 20: Pharmacokinetic study of E55888 and Serodolin. Concentration-time profile of E55888 (reference agonist) and Serodolin in plasma (A) and brain (B) following subcutaneous injection of a unique dose 5 mg/kg of each compound in C57BL/6 mice. Data represent the mean concentration±SEM of n=4 each time point.
The pharmacokinetic study was undertaken to evaluate and compare the quantity of Serodolin and E55888 in plasma and brain samples from C57BL/6 mice (Janvier, Le Genest France) at several time points. Seven weeks old C57BL/6 mice (n=4 animals per group) received by subcutaneous injection a unique dose (5 mg/kg) of Serodolin or E55888 (U103013S, Achemblock). Control group received vehicle (solution of 20% DMSO and 5% Tween 80 diluted in NaCl). […] Blank vehicle mouse brains homogenates and plasma were used to established standard curves of Serodolin or E55888. […] Study samples, brains homogenates and plasma, were prepared for protein precipitation by adding 85 μL of acetonitrile+5-CT to 20 μL of samples. LC-HRMS analysis for PK studies were performed on a maXis Q-TOF mass spectrometer (Bruker, Bremen, Germany) coupled to an U3000 RSLC UHPLC system (Dionex, Germering, Germany). Separation was obtained using an Acquity UPLC BEH C18 column (2.1×50 mm; 1.7 μm) (Waters, Saint-Quentin-en-Yvelines, France) thermostated at 40° C. with a gradient of water (solvent A) and acetonitrile (solvent B), both acidified with 0.1% formic acid at 500 μL/min. […] The samples were randomized prior analysis; 1.25 μL were injected for plasma and 8 μL for brains. […] Area were integrated from extracted ion chromatograms (EIC) of [M+H]+ ions using QuantAnalysis 4.4 software (Bruker) with a tolerance of ±0.005 u.
The pharmacokinetics profile of both compounds were evaluated. The inventors used liquid chromatography tandem mass spectrometry (UPLC-MS/MS) method to perform PK study and measure Serodolin vs E55888 levels in vivo.

human 5-HT7a receptor = human 5-HT7a receptor (Homo sapiens (Human), UniProt P34969); assay: Radioligand binding competition, filtration binding assay, 5-HT7a; conditions: affinity on 5-HT7 receptor, table of new compounds
Description: (§1) FIG. 14: Testing of 8 molecules for radioligand binding competition activity on recombinant human 5-HT1A, 5-HT2A, 5-HT2Cedited, 5-HT6, 5-HT7 and D2(long) receptors using filtration binding assays.
(§2) Radioligand Binding experiments were conducted with Epics Therapeutics membrane preparations. Receptor accession numbers, cellular background and reference compounds are shown in this table.
Reference values thus obtained for the test were compared to historical values obtained from the same receptor and used to validate the experimental session. For replicate determinations, the maximum variability tolerated in the test was of +/−20% around the average of the replicates.
(§3) Dose-response data from test compounds were analyzed with XLfit (IDBS) software using nonlinear regression applied to a sigmoidal dose-response model and the following equation: • XL Fit fit Model 203: 4 Parameter Logistic Model • A: Bottom • B: TOP • C: LogEC50 • D: Hill

mice [2] = assay: CFA-induced mechanical hypersensitivity, Von Frey filament test; type: in vivo; conditions: 5 mg/kg, s.c., 30 minutes
Description: Mechanical hypersensitivity was evaluated after CFA intraplantar injection by using the Von Frey test. […] Mechanical hypersensitivity was performed 24 hrs later (pre-treatment) CFA intraplantar injection into the left hind paw (ipsilateral paw). […] The ligand effects (E55888 or Serodolin) were evaluated 30 min and 24 hrs after in the ipsilateral paw. Data are means±SEM of values obtained in 2 independent experiments (n=8 to 10 per group). ****p<0.0001 ***p<0.001 **p<0.01 *p<0.05. Statistical analysis was done using Kruskal Wallis test.
Von Frey filament test. Before inducing peripheral inflammation, each animal was tested on the left hind paw with Von Frey Filament to determine its basal sensibility level. Then, peripheral inflammation was induced by intraplantar injection of Complete Freund's Adjuvant (CFA-10 μL) (F5881, Sigma) in the left hind paw (ipsilateral paw) and mechanical allodynia was measure (pre-treatment). Mice were divided into two groups, one with E55888 (5 mg/kg) and the other with Serodolin (5 mg/kg) subcutaneous injections in the ipsilateral paw. Both in absence (−) or in presence (+) of the 5-HT7R antagonist SB269960 (5 mg/kg), intraperitoneally, 20 min before the agonist injections (8-10 mice per group).
The inventors wanted to evaluate the effect of Serodolin on mechanical hypersensitivity in comparison with E-55888 after CFA injection.

mice [3] = assay: Tail immersion test (50° C.); type: in vivo; conditions: 5-HT7R KO mice, subcutaneous
Description: (A) Experimental protocol summary used. (B) Mice were subcutaneously injected with two different doses of the 5-HT7 receptor agonist Serodolin, 1 mg/kg or 5 mg/kg and 10 min later their tail extremity was immersed in water heated to 50 degrees. […] The effect of injections (Serodolin or E55888) was evaluated at TO, 30 min and 60 min corresponding to 10, 40 and 70 min after compound injections. […] Their tail extremity was immersed in water heated to 50 degrees at TO (E) or 30 min later (F) corresponding to 10 and 40 min after agonist injections. […] Statistical analysis was done using Tukey's multiple comparison test.
Tail immersion test. Nociception was assessed with the tail immersion test, 10 min and 40 min after E55888 (5 mg/kg) or Serodolin (5 mg/kg) tail subcutaneous injections, in the water heated to 50° C. Vehicle (20% DMSO, 5% Tween 80 diluted in PBS solution) was used as a control group. These different groups were intraperitoneally injected (+) or not (−) with the 5-HT7R antagonist SB269960 (5 mg/kg) 10 min before the ligand injection. The tail withdrawal latency (s) was measured for each animal.

h5-HT7R [4] = molecular target: T1, h5-HT7R (Homo sapiens (Human), UniProt P34969); assay: cAMP accumulation (LANCE cAMP detection kit) in HEK-293 cells stably expressing h5-HT7R; type: cell-based; conditions: tested alone
Description: (B) HEK-293 cells stably expressing h5-HT7R were stimulated with 10 nM of 5-CT and increasing concentrations of products for one hour. After cell lysis, cAMP production was quantified by a LANCE cAMP detection kit (Perkin Elmer). […] Data points represent the means±SEM from three independent experiments performed in triplicate. The EC50 and IC50 for each drug was determined using GraphPad Prism software.
cAMP accumulation was measured with a LANCE™ cAMP detection kit (Perkin-Elmer Life Sciences, Boston, MA, USA). 12 h before experiment cells were starved. Forty-eight h after transfection, cells were harvested in Hank's balanced salt solution (HBSS) containing 5 mM HEPES, 1 mM isobutylmethylxanthine (IBMX) and 0.1% BSA, PH 7.4. After centrifugation (1000×g, 5 min), cells were resuspended in the same buffer (2×10^6 per ml). The ALEXA™ fluor 647 anti-cAMP antibody solution (1 μl) was added to the cell suspension (100 μl) and 5 μl aliquots of the mixture were dispensed in white 384-well microtiter plates (Optiplate, Perkin Elmer). The cells were then stimulated with different drugs. After 1 h incubation at room temperature in the dark, lysis buffer (0.35% Triton X-100, 10 mM CaCl2, 50 mM HEPES) containing LANCE EU-W8044 labeled streptavidin and biotinylated-cAMP was added to the cells (10 μL per well). After 2 h incubation at room temperature in the dark, the plates were read on a VictorV™ microplate reader (Perkin-Elmer Life Sciences). Concentration/response curves were analyzed using Prism 4 software.
HEK-293 fibroblast stably expressing 5-HT7 receptor were used to compare the effect of different 5-HT7R ligands on the classical Gαs-mediated activation of AC pathway. It was decided to evaluate the lead compounds from two series of ligands, Serodolin and MOA-51 (FIG. 1A).

[5] = molecular target: human 5-HT2Cedited receptor (Homo sapiens, UniProt P28335); assay: Radioligand binding competition, 5-HT2Cedited; conditions: selectivity panel
Description: as §1, §2
(§4) The new compounds have been tested by radioligand binding competition activity at the human 5-HT1A (FAST-0500B), 5-HT2A (FAST-0505B), 5-HT2Cedited (FAST-0507B), 5-HT6 (FAST-0509B), 5-HT7a (FAST-05111B) and D2(long) (FAST-0101B) receptors at seven (7) concentrations, in duplicate. […] Reference values thus obtained for the test were compared to historical values obtained from the same receptor and used to validate the experimental session. For replicate determinations, the maximum variability tolerated in the test was of +/−20% around the average of the replicates.
as §3

human 5-HT2A receptor = human 5-HT2A receptor (Homo sapiens (Human), UniProt P28223); assay: Radioligand binding competition, 5-HT2A; conditions: selectivity panel
Description: as §1, §2, §4, §3

human 5-HT1A receptor = human 5-HT1A receptor (Homo sapiens (Human), UniProt P08908); assay: Radioligand binding competition, 5-HT1A; conditions: selectivity panel
Description: as §1, §2, §4, §3

h5-HT7R [6] = molecular target: T1, h5-HT7R; assay: AlphaScreen SureFire phospho-ERK and phospho-c-SRC assays; type: cell-based; conditions: pretreatment of cells, Serodolin stimulation
Description: FIG. 7: Serodolin induced ERK phosphorylation is dependent on c-SRC activation and requires proline-rich regions on 5-HT7R. […] Cells were lysed, and western blot analysis was performed. (B) The phosphorylation of ERK1/2 as well as phosphorylation of c-SRC were quantified on the same cell lysates using the AlphaScreen assays. Means±SEM of values from three experiments performed in triplicate. (C) The PXXP motif in the C-terminal tail of 5-HT7R has been mutated as described in the upper panel. The corresponding constructs encoding HA-tagged 5-HT7 receptor were transfected in HEK-293 cells as indicated (MutT1, mutT2 and mutT3), then the effect of 5-CT and Serodolin have been evaluated on ERK1/2 and c-SRC activation by Western blot analysis. Representative immunoblots of three independent experiments are illustrated.
The AlphaScreen SureFire phospho-ERK and phosphor-c-SRC assays (PerkinElmer) were used to quantify pERK1/2 and pc-SRC from HEK-293 cell lysates according to the manufacturer's instructions.
(2018) V1b vasopressin receptor trafficking and signaling: Role of arrestins, G proteins and Src kinase. Traffic 19, 58-82; Rey, A., Manen, D., Rizzoli, R., Caverzasio, J., and Ferrari, S. L. (2006) Proline-rich motifs in the parathyroid hormone (PTH)/PTH-related protein receptor C terminus mediate scaffolding of c-Src with beta-arrestin2 for ERK1/2 activation. J Biol Chem 281, 38181-38188). […] To determine whether one of these mechanisms was required for Serodolin-induced ERK phosphorylation, the inventors first evaluated the sensitivity of this activation to the c-SRC-specific tyrosine kinase inhibitor PP2. […]

T1 sequence (P34969 1-432): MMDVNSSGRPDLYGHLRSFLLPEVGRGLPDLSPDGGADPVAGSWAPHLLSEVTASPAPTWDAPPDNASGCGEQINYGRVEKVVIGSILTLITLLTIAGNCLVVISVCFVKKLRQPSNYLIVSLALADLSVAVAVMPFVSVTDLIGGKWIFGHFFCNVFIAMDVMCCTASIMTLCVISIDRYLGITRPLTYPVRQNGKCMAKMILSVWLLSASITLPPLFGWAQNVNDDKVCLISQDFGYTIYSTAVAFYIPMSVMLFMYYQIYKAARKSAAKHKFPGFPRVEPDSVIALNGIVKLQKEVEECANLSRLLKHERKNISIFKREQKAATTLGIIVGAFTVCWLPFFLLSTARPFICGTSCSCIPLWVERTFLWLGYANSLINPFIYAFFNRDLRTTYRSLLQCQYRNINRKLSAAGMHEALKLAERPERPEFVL
Sequence of human 5-HT7a receptor (P34969 other isoform, or with tags, fused parts or gaps): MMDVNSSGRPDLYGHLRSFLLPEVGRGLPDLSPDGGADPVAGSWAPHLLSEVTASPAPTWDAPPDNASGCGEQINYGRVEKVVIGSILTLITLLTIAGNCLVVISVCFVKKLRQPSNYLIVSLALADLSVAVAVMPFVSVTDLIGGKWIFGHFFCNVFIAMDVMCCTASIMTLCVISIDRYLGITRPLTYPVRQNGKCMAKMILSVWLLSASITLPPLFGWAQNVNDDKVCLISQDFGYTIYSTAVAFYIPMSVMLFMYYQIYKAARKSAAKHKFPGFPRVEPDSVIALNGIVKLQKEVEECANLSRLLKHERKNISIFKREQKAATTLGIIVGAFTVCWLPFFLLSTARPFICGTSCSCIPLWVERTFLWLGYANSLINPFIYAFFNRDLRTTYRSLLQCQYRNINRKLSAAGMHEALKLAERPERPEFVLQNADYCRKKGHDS
Sequence of human 5-HT2Cedited receptor (P28335 33-458 limits assumed): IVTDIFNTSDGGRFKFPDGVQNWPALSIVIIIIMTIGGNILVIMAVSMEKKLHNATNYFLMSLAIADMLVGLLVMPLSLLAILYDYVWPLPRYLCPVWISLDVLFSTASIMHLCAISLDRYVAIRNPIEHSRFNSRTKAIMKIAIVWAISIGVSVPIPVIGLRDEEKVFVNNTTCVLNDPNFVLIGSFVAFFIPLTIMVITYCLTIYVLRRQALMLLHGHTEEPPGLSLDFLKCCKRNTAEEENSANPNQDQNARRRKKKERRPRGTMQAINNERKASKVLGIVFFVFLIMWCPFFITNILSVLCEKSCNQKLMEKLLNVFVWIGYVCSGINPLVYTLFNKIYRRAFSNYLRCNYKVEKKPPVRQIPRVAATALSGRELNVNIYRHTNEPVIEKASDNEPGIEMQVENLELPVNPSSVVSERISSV
Sequence of human 5-HT1A receptor (P08908 whole entry): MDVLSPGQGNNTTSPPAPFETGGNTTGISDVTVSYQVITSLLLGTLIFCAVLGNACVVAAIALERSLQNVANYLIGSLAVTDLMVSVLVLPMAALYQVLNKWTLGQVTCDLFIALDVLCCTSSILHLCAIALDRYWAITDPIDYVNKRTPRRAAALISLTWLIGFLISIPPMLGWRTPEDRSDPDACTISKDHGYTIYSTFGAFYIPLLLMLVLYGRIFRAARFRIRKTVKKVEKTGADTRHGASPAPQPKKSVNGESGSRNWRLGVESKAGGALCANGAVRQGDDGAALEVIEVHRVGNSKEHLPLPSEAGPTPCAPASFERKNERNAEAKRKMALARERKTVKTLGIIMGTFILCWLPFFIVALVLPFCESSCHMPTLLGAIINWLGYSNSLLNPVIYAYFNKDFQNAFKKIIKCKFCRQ
Sequence of human 5-HT2A receptor (P28223 whole entry): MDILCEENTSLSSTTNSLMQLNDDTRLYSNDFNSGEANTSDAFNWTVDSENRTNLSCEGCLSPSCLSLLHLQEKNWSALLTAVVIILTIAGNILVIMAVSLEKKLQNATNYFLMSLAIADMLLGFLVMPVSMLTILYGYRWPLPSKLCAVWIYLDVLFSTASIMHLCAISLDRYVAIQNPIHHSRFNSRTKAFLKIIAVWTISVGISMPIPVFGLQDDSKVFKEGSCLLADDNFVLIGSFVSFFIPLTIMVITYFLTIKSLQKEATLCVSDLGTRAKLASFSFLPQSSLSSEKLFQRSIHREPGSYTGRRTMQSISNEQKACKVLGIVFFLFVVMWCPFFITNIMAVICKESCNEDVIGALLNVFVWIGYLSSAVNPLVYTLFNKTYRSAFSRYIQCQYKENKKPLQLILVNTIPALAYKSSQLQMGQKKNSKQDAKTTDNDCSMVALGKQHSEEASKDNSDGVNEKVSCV

Cc1nn(C)c(C)c1-c1cccc(CCN(C)C)c1 [E55888, reference compound]
passage of the brain blood barrier [1]: ability to pass the brain blood barrier
time of maximum of detection ([1]; both in plasma and brain): 15 to 30 min
maximum of detection in brain ([1]; brain): 1.4 ± 0.2 µg/mL
maximum of detection in plasma ([1]; plasma): 6.1 ± 0.5 µg/mL
time after which eliminated / undetectable ([1]; plasma and brain): 120 min
IC50 (human 5-HT7a receptor): 2.68 nM
Ki (human 5-HT7a receptor): 1.88 nM
CFA-induced mechanical hypersensitivity, 30 minutes after administration (mice [2]): reversed the CFA-induced mechanical hypersensitivity
anti-nociceptive effect in 5-HT7R KO mice (mice [3]): did not exert any anti-nociceptive effect

O=C(c1ccc(F)cc1)C1CCN(CCCCn2c(=O)[nH]c3ccccc32)CC1 [MOA51]
inhibition of cAMP production when tested alone (inverse agonist effect) (h5-HT7R [4]): around 75%
IC50 (human 5-HT7a receptor): 0.29 nM
Ki (human 5-HT7a receptor): 0.2 nM
IC50 ([5]; read-out: RLB 5-HT2Cedited IC50): 699 nM
Ki ([5]; read-out: RLB 5-HT2Cedited Ki): 115 nM
IC50 (human 5-HT2A receptor; read-out: RLB 5-HT2A IC50): 3.29 nM
Ki (human 5-HT2A receptor; read-out: RLB 5-HT2A Ki): 0.54 nM
IC50 (human 5-HT1A receptor; read-out: RLB 5-HT1A IC50): 885 nM
Ki (human 5-HT1A receptor; read-out: RLB 5-HT1A Ki): 442 nM

CC(C)(C)n1nc(-c2ccc(Cl)cc2)c2c(N)ncnc21 [PP2]
block of Serodolin-induced ERK phosphorylation (h5-HT7R [6]): 99%
block of Serodolin-induced c-SRC phosphorylation (h5-HT7R [6]): 100%

Nc1ncnc2c1cnn2-c1ccccc1 [PP3]
block of Serodolin-induced ERK phosphorylation (h5-HT7R [6]): inactive
